In US6962695B1, “Modification of interferon alpha production” (Bionative AB, priority 1998, dated 2005):

What was measured:
[1] = system: Sendai virus induced human leukocytes; assay: α-interferon production in Sendai virus induced human leukocytes, ELISA of supernatant; assay type: cell-based; details: for effect on production of α-interferon (in words): virus induced primary leukocytes
Procedure: The human leukocytes used according to the invention are prepared from buffy coats by an initial centrifugation to fractionate the components, followed by sequential removal of the plasma layer and of the leukocyte fraction by suction. Residual red blood cells contaminating the leukocyte fraction are lysed twice with 2-4 volumes of cold 0.83% ammonium chloride and each lysis step is followed by centrifugation to collect the cells. The final leukocyte fraction is resuspended in a basal medium, e.g. EMEM (Eagle's minimum essential medium) supplemented with polyethylene glycol-(PEG)-precipitated human plasma. PEG-precipitated plasma is prepared by adding PEG 6000 to a final concentration of 6% (w/w) to human plasma. After precipitation for 3-5 days in a cold room the supernatant is removed and stored frozen until used. The temperature of the incubation medium is set to 36-37° C. and continuous stirring is used. Human PEG-precipitated plasma is added to a concentration of 1-5% (v/v), preferably 4% (v/v). A low amount of α-interferon (normally 100 IU/ml) is added to the incubation medium as a priming step, but other concentrations, up to several thousands of units per ml can be used. Human leukocytes are then added to a concentration of about 3-15 million cells per mL, preferably 7-11 million cells per mL. The similar size of the enhancing effect observed using the different cell concentrations makes it probable that the effect can be seen also at cell concentrations outside this range. The priming step is normally allowed to proceed for 1-5 hours, preferably 1.5-2 hours. […] A decrease of the incubation temperature to 29° C. -32° C. is performed (Morser, J. And Shuttleworth, J. (1981) J. Gen. Virology 56, 163-174) after another 1 to 4 hours, preferable after 1 to 2 hours. The concentration range where the additives are effective in increasing the interferon production varies between the different compounds but for the least toxic solvents a positive effect can be seen in the range of 1 mM-0.3 M, preferably in the range of 3 mM-50 mM and most preferably within 5 mM-20 mM. For the more toxic solvents the suitable concentration lies within the more limited ranges. […] After these additions, the incubation is allowed to proceed overnight with continuous stirring. A centrifugation step is performed to remove the cells and the supernatants are analysed by an ELISA to quantify α-interferon. Human leukocytes prepared from buffy coats and used in concentrations between 8 and 11 million cells per mL are incubated in a basal media (either EMEM or a modified EMEM) supplemented with 1.5 g/L of tricine and 4% (v/v) PEG precipitated plasma. […] The cells are removed by a centrifugation step and the supernatants are analysed by an ELISA to quantify α-interferon. […]

[2] = system: non induced human leukocytes; assay: α-interferon production in non induced human leukocytes, ELISA of supernatant; assay type: cell-based; details: absence of a viral inducer
Procedure: Human leukocytes prepared from buffy coats and used in concentrations between 8 and 11 million cells per mL are incubated in a basal media (either EMEM or a modified EMEM) supplemented with 1.5 g/L of tricine and 4% (v/v) PEG precipitated plasma. The experiments are performed in a volume of 40 mL medium in 100 mL glass bottles under continuous stirring. The cells are primed with 100 IU/mL α-interferon for 1.5 hours at 37° C. before addition of 30 mL/L Sendai virus. After 1.5 hours the incubation temperature is decreased to 30° C. and the organic solvents are added to the incubation medium. The solvent used are acetone, DMSO (final concentration: 5 mL/L), 2-butanone, NN-dimethylacetamide, NMP, tetramethylene sulfoxide (2.5 mL/L), TMU (1.5 mL/L), 2-pyrrolidinone (1.25 mL/L), 4-metyl-2-pentanone, 1,3-dimetyl-2-imidazolidinone and N-ethyl-2-pyrrolidinone (0.6 mL/L). The incubation is then allowed to proceed overnight. The cells are removed by a centrifugation step and the supernatants are analysed by an ELISA to quantify α-interferon.
Example 1 is repeated with the same incubation conditions but with addition of 2-ABMP in combination with DMSO. The enhancing agents are added both to Sendai virus induced leukocytes and to non induced leukocytes and the effect on the α-interferon production is compared. The 2-ABMP is added at a concentration of 50 μg/ml and the amount of DMSO added is 5 mL/L.

Row | Structure (SMILES) | effect on production of α-interferon (in words) [1] | induction of α-interferon (in words) [2] | effect on yield of α-interferon (in words) ([1]; pre-treatment of primary leukocytes)
1 | C[S+](C)[O-] [dimethylsulfoxide] | enhanced | – | –
2 | Cc1nc(N)nc(O)c1Br [2-ABMP, 2-amino-5-bromo-6-methyl-4-pyrimidinol] | act as an enhancing agent | did not induce α-interferon | –
3 | CCCC(=O)[O-].[Na+] [sodium butyrate] | – | – | decrease
4 | Cn1c(=O)c2[nH]cnc2n(C)c1=O [theophylline] | enhanced | – | –
